Results as given in US20220401592A1, “LOW MOLECULAR WEIGHT AND POLYAMIDOAMINE (PAMAM) DENDRIMER BASED PSMA-SPECIFIC DUAL CONTRAST AGENTS FOR OPTICAL AND PHOTOACOUSTIC IMAGING AND THERANOSTIC AGENTS FOR TREATING PROSTATE CANCER” (priority 2021, published 2022).

Assays:
PSMA+ PC3 PIP tumors = assay: In vivo photoacoustic imaging, PSMA+ PC3 PIP tumors; design: species or system NOD-SCID mice
PSMA-PC3 flu tumors = assay: In vivo photoacoustic imaging, PSMA-PC3 flu tumors; design: species or system NOD-SCID mice
Source text: To evaluate potential application of the conjugates in photoacoustic imaging, mice used in optical imaging (described in optical imaging section) were imaged using the Nd:YAG OPO laser and Verasonics Vantage 256 ultrasound research platform. […] Under the assumption that different tissue types yield linearly independent PA signal, the two-dimensional (axial and lateral) PA images of the exogeneous imaging agent (conjugate VI) were decomposed from the acquired three-dimensional photoacoustic volume (axial, lateral, and spectral) using non-negative least squares models. The same speed of sound was considered in the beam formation of US and PA imaging. Thus, the two imaging modalities were co-registered by nature. On top of that, image fusion of the two was achieved by using Daubechies 2 wavelet in wavelet transform.
To record background for PA signal mice were imaged before administration of […] and 5, 24, 48, and 72 h after injection (ai). The average PA intensities within the region-of-interest (ROI) of PSMA^+ PC3 normalized with respect to the pre-administration baseline PIP were 25.1±11.0, 30.2±21.1, and 21.8±7.4 at 24, 48 and 72 h ai, respectively. The average PA image intensities within the ROI of PSMA-PC3 flu were 4.2±4.3, 5.9±2.5, 3.8±1.3 (a.u.) at the same time points. […] The normalized PA image intensities of PSMA^+ PC3 PIP tumors were 1.1±0.9, 3.8±4.1, and 1.6±1.4 (a.u.) at 24, 48 and 72 h ai, respectively, and of PSMA-PC3 flu tumors were 2.0±0.9, 3.4±2.4, and 0.9±0.7 (a.u.), respectively.

[1] = system: PSMA+ PC3 PIP and PSMA-PC3 flu xenografts; assay: NIR optical imaging, in vivo and ex vivo, of tumor-bearing mice; design: species or system NOD-SCID mice; settings: for preferential accumulation in PSMA+ PC3 PIP tumors vs PSMA-PC3 flu tumors (optical imaging): whole-body NIR imaging, 800 nm channel
PSMA [2] = target: T1, PSMA (Homo sapiens, UniProt Q04609); assay: In vitro binding assay of conjugates with PSMA+ PC3 PIP cells (vs PSMA- PC3 flu cells); design: expressed in transfected cells; host or cells: PSMA+ PC3 PIP (human prostate cancer PC3 subline); PSMA- PC3 flu as negative control; settings: for Kd: PSMA+ PC3 PIP cells, fluorescence intensity vs concentration, read-out: Kd, dissociation constant
Target sequence in this assay (Q04609 whole entry): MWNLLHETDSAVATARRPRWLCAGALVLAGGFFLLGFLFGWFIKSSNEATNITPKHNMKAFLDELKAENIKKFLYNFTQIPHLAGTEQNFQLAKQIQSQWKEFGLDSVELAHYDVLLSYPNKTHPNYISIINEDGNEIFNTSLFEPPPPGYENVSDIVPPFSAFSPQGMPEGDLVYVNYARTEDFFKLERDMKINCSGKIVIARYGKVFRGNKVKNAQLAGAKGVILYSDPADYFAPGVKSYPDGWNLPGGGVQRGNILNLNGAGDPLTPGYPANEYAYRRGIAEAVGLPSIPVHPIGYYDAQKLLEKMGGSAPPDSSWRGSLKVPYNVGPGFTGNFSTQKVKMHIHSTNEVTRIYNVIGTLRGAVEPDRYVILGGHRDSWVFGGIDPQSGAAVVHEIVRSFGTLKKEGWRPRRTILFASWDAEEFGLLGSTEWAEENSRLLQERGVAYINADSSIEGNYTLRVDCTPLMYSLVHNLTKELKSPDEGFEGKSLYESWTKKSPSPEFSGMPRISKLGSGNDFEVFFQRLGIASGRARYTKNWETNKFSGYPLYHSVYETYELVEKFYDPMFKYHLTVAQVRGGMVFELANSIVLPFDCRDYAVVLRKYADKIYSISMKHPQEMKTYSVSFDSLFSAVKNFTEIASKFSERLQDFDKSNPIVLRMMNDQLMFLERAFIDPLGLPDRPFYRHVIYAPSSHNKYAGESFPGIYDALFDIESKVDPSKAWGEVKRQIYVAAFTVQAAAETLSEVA

PSMA [3] = target: T1, PSMA; settings: cited from earlier work
Target sequence in this assay (Q04609 whole entry, species assumed): as the sequence (Q04609 whole entry) above

[4] = PA tubing phantom experiment; settings: for RPAmax, ratio of maximum PA intensity in NIR range (with respect to I at 770 nm): 700-900 nm in steps of 10 nm; for RPAmax, ratio of maximum PA intensity in NIR range (with respect to I at 770 nm) / RPA780, ratio of photoacoustic intensity at 780 nm (to conjugate I): same amount of Cy7.5 dye; for PB: abbreviation not defined in the footnote
Description: (§1) All conjugates were formulated into 600 μL sample containing 2.88-nmol Cy7.5 dye. Then, each sample was equally split into three for spectrophotometric, spectrofluorometric, and PA tests, respectively. To obtain the excitation wavelength for fluorescence evaluation as well as estimating the shape of PA spectra, optical absorbance of all conjugates was first tested on a UIV-Vis spectrophotometer. A range from 650 nm to 950 nm (slightly wider than the tunable stable wavelength range on a Nd:YAG OPO laser, i.e., 700 nm to 900 nm) in step of 1 nm was selected. […] Due to the emission limit on the spectrofluorometer (up to 850 nm), the excitation for spectrofluorometry was set at 715 nm, and the emission was set from 750 nm to 850 nm in step of 1 nm. […] Specifically, to avoid the interference of photobleaching wavelengths from 700 nm to 900 nm in step of 10 nm were tested in PA tubing phantom experiment.

[5] = Spectrofluorometric test (fluorescence quenching) of conjugates; settings: excitation 715 nm, emission 750-850 nm; samples with the same amount of Cy7.5 dye; normalized to conjugate I
Description: as §1

[6] = Spectrophotometric test (UV-Vis optical absorbance) of conjugates
Description: as §1

Compound | average PA intensity within ROI of PSMA+ PC3 PIP, normalized to pre-injection baseline (PSMA+ PC3 PIP tumors; 24 h after injection) | average PA intensity within ROI of PSMA+ PC3 PIP, normalized to pre-injection baseline (PSMA+ PC3 PIP tumors; 48 h after injection) | average PA intensity within ROI of PSMA+ PC3 PIP, normalized to pre-injection baseline (PSMA+ PC3 PIP tumors; 72 h after injection) | average PA image intensity within ROI of PSMA-PC3 flu (PSMA-PC3 flu tumors; 24 h after injection) | average PA image intensity within ROI of PSMA-PC3 flu (PSMA-PC3 flu tumors; 48 h after injection) | average PA image intensity within ROI of PSMA-PC3 flu (PSMA-PC3 flu tumors; 72 h after injection) | preferential accumulation in PSMA+ PC3 PIP tumors vs PSMA-PC3 flu tumors (optical imaging) [1] | Kd (PSMA [2]) | affinity to PSMA (PSMA [3]) | RPAmax, ratio of maximum PA intensity in NIR range (with respect to I at 770 nm) [4] | RPA780, ratio of photoacoustic intensity at 780 nm (to conjugate I) [4] | PB [4] | QR (quenching rate) [5] | ex vivo fluorescence intensity PSMA+ PC3 PIP/PSMA-PC3 flu ratio ([1]; dissected tissues 72 h after injection of 100 μg (3.72 nmol)) | uptake by PSMA+ PC3 PIP cells compared to PSMA-PC3 flu cells (PSMA [2]) | specific uptake by PSMA+ PC3 PIP in presence of an excess of ZJ-43 (PSMA [2]; excess of ZJ-43 (PSMA antagonist)) | internalization in PSMA+ PC3 PIP cells compared to PSMA-PC3 flu cells (PSMA [2]; microscopic evaluation) | ratio of PA intensity to I in 790-900 nm range ([4]; maximum ratio, at 860 nm) | absorbance relative to I below 750 nm [6]
CN1/C(=C/C=C2C=C(/C=C/C3=[N+](CCCCCC(=O)NCCCC[C@H](NC(=O)CCCCCCC(=O)NCCCC[C@H](NC(=O)N[C@@H](CCC(=O)O)C(=O)O)C(=O)O)C(=O)O)c4ccc5c(S(=O)(=O)O)cc(S(=O)(=O)O)cc5c4C3(C)C)CCC/2)C(C)(C)c2c1ccc1c(S(=O)(=O)[O-])cc(S(=O)(=O)O)cc21 [Conjugate I] | 21.6±16.8 a.u. | 12.7±5.2 a.u. | 10.0±4.8 a.u. | 1.9±1.4 a.u. | 19±0.9 a.u. | 2.0±1.1 a.u. | preferential accumulation | 780 nM | – | – | – | – | – | – | – | – | – | – | –
NCCCCC(NC(=O)NC(CCC(=O)O)C(=O)O)C(=O)O (stereo not drawn) [KEU, Lys-Glu-urea] | – | – | – | – | – | – | – | – | picomolar | – | – | – | – | – | – | – | – | – | –
G4(Cy7.5)6(SA-KEU)9(Bdiol)53 [Conjugate IV] | 25.1±11.0 a.u. | 30.2±21.1 a.u. | 21.8±7.4 a.u. | 4.2±4.3 a.u. | 5.9±2.5 a.u. | 3.8±1.3 a.u. | highly specific accumulation | 410 nM | – | 48.1% | 49.0% | 0.037 %/sec | 4.4% | 6.2 | significantly higher uptake | inhibited | significantly higher internalization | – | –
G4(Cy7.5)s(SA-KEU)12(Bdiol)52 [Conjugate V] | – | – | – | – | – | – | – | 78 nM | – | 111.1% | 97.5% | 0.057 %/sec | 1.3% | – | – | – | – | ≤ 1257.44% | up to 1.8 times
G4(NH2)13(Cy7.5)6(Bdiol)45 [Conjugate VI] | 1.1±0.9 a.u. | 3.8±4.1 a.u. | 1.6±1.4 a.u. | 2.0±0.9 a.u. | 3.4±2.4 a.u. | 0.9±0.7 a.u. | did not show preferential uptake | – | – | 44.6% | 45.4% | – | 26.6% | – | – | – | – | – | –
G4(NH2)20(Cy7.5)2(SA-KEU)10(Bdiol)32 [Conjugate II] | – | – | – | – | – | – | – | 680 nM | – | 30.3% | 30.8% | 0.043 %/sec | 76.4% | – | – | – | – | – | –
G4(NH2)(Cy7.5)4(SA-KEU)9(Bdiol)30 [Conjugate III] | – | – | – | – | – | – | – | 270 nM | – | 20.6% | 20.9% | 0.049 %/sec | 174.9% | – | – | – | – | – | –
